US20260034150A1, “CANNABIDIOL FOR USE IN TREATING OR PREVENTING RECURRENT PERICARDITIS” (CARDIOL THERAPEUTICS INC., priority 2022, published 2026)
“And” between values parts separate entries of the source, which are not always exact repeats. Equal entries are not always repeated.

Assays:
NLRP3 inflammasome = assay: IL-1β ELISA in the in vitro model of NLRP3 inflammasome activation (LPS + ATP); assay type: cell-based, mouse; conditions: for attenuation of the increase in IL-1β: CBD 10 μM, LPS + ATP
Experimental: An experiment was performed to determine the effect of 10 μM cannabidiol on NLRP3 inflammasome activation in an in vitro model as follows. J774A.1 mouse macrophages were cultured in 96-well plates (15,000 cells/well) and divided into the following groups to which various treatments described below were administered during a period of six hours: • 1. Group 1 (CNT)—cells received nothing during the 6-hour treatment period. • 2. Group 2 (LPS)—cells received LPS (1 μg/ml) for 6 hours. • 3. Group 3 (ATP)—cells received nothing for 5.5 hours and then ATP (5 mM) for the last 30 minutes. • 4. Group 4 (LPS+ATP)—cells received LPS (1 μg/mL) for 5.5 hours and ATP (5 mM) for the last 30 minutes. • 5. […] After 6 hours, 100 μL of a sample from each well of cells was collected and loaded as a single point in a specific ELISA assay that was used to measure the amount of IL-1β secreted by the macrophages in each sample. IL-1β is an indicator of and positively correlated with NLRP3 inflammasome activation. An experiment was performed to evaluate the effect of different doses of cannabidiol (10, 1, 0.1, and 0.01 μM) using the in vitro model of Example 1A. In this experiment, J774A.1 mouse macrophages were cultured in 96-well plates (15,000 cells/well) and divided into the following groups to which various treatments described below were administered during a period of six hours: • 1. Group 1 (Control)—cells received nothing during the 6-hour treatment period. • 2. Group 2 (LPS+ATP)—cells received LPS (1 μg/mL) for 5.5 hours and ATP (5 mM) for the last 30 minutes. • 3. […] After 6 hours, 100 μL of a sample from each well of cells was collected and loaded as a single point in a specific ELISA assay that was used to measure the amount of IL-1β in each sample.

IL-6 = IL-6 ELISA in LPS-treated macrophages (in vitro model of inflammation); assay type: cell-based, mouse; conditions: CBD 10 μM + LPS 1 μg/mL for 6 hours; J774A.1
Experimental: Experiments were performed to evaluate cannabidiol's anti-inflammatory activity and mechanism of action. The secretion of IL-6 and the transcription of the NLRP3 inflammasome components, pro-IL-1β mRNA, and NLRP3 mRNA, are regulated by the NF-κβ pathway and activated by LPS. In a first experiment, J774A.1 mouse macrophages were cultured in 96-well plates (15,000 cells/well) and divided into the following groups to which various treatments described below were administered during a period of six hours: • 1. Group 1 (Control)—cells received nothing during the 6 hours treatment period. • 2. Group 2 (LPS)—cells received LPS (1 μg/ml) for 6 hours. • 3. […] After 6 hours, 100 μL of a sample from each well of cells was collected and loaded as a single point in a specific ELISA assay that was used to measure the amount of IL-6 in each sample. […] A second experiment was performed to evaluate the effect of cannabidiol on the transcription of components of the NLRP3 inflammasome, namely, pro-IL-1β mRNA and NLRP3 mRNA. In this second experiment, J774A.1 mouse macrophages were cultured in individual plates (1,000,000 cells/well) and divided into the following groups to which various treatments described below were administered during a period of six hours. • 1. Group 1 (Control)—cells received nothing during the 6 hours treatment period. • 2. […]

pro-IL-1β mRNA = assay: PCR of pro-IL-1β mRNA transcription in LPS-treated macrophages; assay type: cell-based, mouse; conditions: CBD 10 μM + LPS 1 μg/mL for 6 hours; J774A.1
Experimental: (§1) Experiments were performed to evaluate cannabidiol's anti-inflammatory activity and mechanism of action. The secretion of IL-6 and the transcription of the NLRP3 inflammasome components, pro-IL-1β mRNA, and NLRP3 mRNA, are regulated by the NF-κβ pathway and activated by LPS. After 6 hours, 100 μL of a sample from each well of cells was collected and loaded as a single point in a specific ELISA assay that was used to measure the amount of IL-6 in each sample. […] A second experiment was performed to evaluate the effect of cannabidiol on the transcription of components of the NLRP3 inflammasome, namely, pro-IL-1β mRNA and NLRP3 mRNA. In this second experiment, J774A.1 mouse macrophages were cultured in individual plates (1,000,000 cells/well) and divided into the following groups to which various treatments described below were administered during a period of six hours. • 1. Group 1 (Control)—cells received nothing during the 6 hours treatment period. • 2. Group 2 (LPS)—cells received LPS (1 μg/ml) for 6 hours. • 3. […] At the end of the six-hour treatment period, samples from each group were collected and processed using Polymerase Chain Reaction (PCR) to measure the level of transcription of pro-IL-1B mRNA and NLRP3 mRNA in the samples.

NLRP3 mRNA = assay: PCR of NLRP3 mRNA transcription in LPS-treated macrophages; assay type: cell-based, mouse; conditions: CBD 10 μM + LPS 1 μg/mL for 6 hours; J774A.1
Experimental: as §1

[1] = tested on: mouse model of pericarditis; assay: Mouse model of pericarditis (Zymosan A): pericardial space by transthoracic echocardiography; assay type: in vivo
Experimental: (§2) Experiments were conducted using a mouse model of pericarditis described in Mauro et al. (10), which mouse model is incorporated herein by reference for its disclosure of the mouse model.
(§3) Adult Institute of Cancer Research (IRC) mice (10 weeks of age) supplied by Harlan Laboratories (Harlan Sprague Dawley Inc.) were used and divided into the following treatment groups, with each group consisting of 4-5 mice: • 1. Group 1 (NaCl+Veh)—mice received normal saline (0.9% w/v NaCl) in the surgical procedure described below and were subsequently treated for seven days with a vehicle consisting of ethanol:Cremophor EL:water (1:1:18). • 2. Group 2 (NaCl+)—mice received normal saline (0.9% w/v NaCl) in the surgical procedure described below and were subsequently treated for seven days with cannabidiol at a dose of 10 mg/kg. The cannabidiol was dissolved in the same vehicle as the vehicle used for Group 1. • 3. Group 3 (Zym+Veh)—mice received Zymosan A in the surgical procedure described below and were subsequently treated for seven days with the same vehicle as the vehicle used for Group 1. • 4. […] The cannabidiol was dissolved in the same vehicle as the vehicle used for Group 1. • 5. […] The cannabidiol was dissolved in the same vehicle as the vehicle used for Group 1.
The mice of all four treatment groups were anesthetized, intubated orotracheally, and placed in the right lateral decubitus position. A left thoracotomy was then performed. Under direct visualization and using a 30 Gauge needle, 1 mg of Zymosan A (referred to herein also as “zymosan”) dissolved in 50 μl of sterile normal saline (0.9% w/v NaCl) was delivered into the pericardial space of the mice of Groups 3 and 4 by carefully lifting the pericardial sac with forceps until a complete distribution of the solution into the pericardium was achieved. […] All mice received analgesia for the peri-operative period.
For all groups, treatments with either cannabidiol dissolved in vehicle, or vehicle alone, were administered intraperitoneally (IP) every day for seven days with the first treatment administered approximately 30 minutes after the surgery.
On day seven, echocardiography was performed on the mice of all groups under light anesthesia using a Prospect™ T1 ultrasound imaging system (Scintica, London, Canada). In this procedure, the left ventricle in the parasternal short-axis view at the mid-ventricular level was visualized in the bi-dimensional mode (B-mode). The image was optimized for the anterior wall, and the image was zoomed in to visualize the anterior pericardial structures. After optimization of the image, amono-dimensional mode (M-mode) was acquired for optimal spatial-temporal resolution. An investigator blinded to group allocation measured the maximal pericardial space between the 2 layers of the pericardium in both M- and B-mode. The pericardial space is a one-dimensional measure of pericardial effusion.

[2] = tested on: mouse model of pericarditis; assay: Mouse model of pericarditis (Zymosan A): pericardial thickness by histochemistry; assay type: in vivo; conditions: day seven, differences not statistically significant
Experimental: as §2, §3
The mice of all four treatment groups were anesthetized, intubated orotracheally, and placed in the right lateral decubitus position. A left thoracotomy was then performed. […]
Following echocardiography, and on day seven, the mice were sacrificed, and their hearts were explanted and processed for pathology. […] An investigator blinded to group allocation measured the pericardial thickness with the aid of computer morphometry using Image-Pro™ Plus 6.0 software (Media Cybernetics, Silver Spring, MD).

For C=C(C)[C@@H]1CCC(C)=C[C@H]1c1c(O)cc(CCCCC)cc1O [CBD, 2-[(1R,6R)-3-methyl-6-prop-1-en-2-ylcyclohex-2-en-1-yl]-5-pentylbenzene-1,3-diol], the “IL-1β concentration versus LPS+ATP group (FIG. 1A)” value (NLRP3 inflammasome; CBD 10 μM + LPS + ATP versus LPS + ATP, J774A.1) was “significantly lower concentrations of IL-1β”, the “effect of different concentrations on IL-1β (FIG. 1B)” value (NLRP3 inflammasome; CBD 10, 1, 0.1 and 0.01 μM + LPS + ATP, J774A.1) was “effective to attenuate the increase in IL-1β in a dose dependent fashion” and the “IL-1β with CBD alone versus Control group” value (NLRP3 inflammasome; CBD alone 10 μM, no LPS or ATP, J774A.1) was “no different than the Control group”. For the same molecule, the “IL-1β Concentration, CBD, Mean” value (NLRP3 inflammasome; Table 1A.1, J774A.1 macrophages, CBD 10 μM alone for 6 hours, mean) was 6 pg/mL, the “IL-1β Concentration, CBD” value (NLRP3 inflammasome; Table 1A.1, J774A.1 macrophages, CBD 10 μM alone for 6 hours, single wells) was 5.9 pg/mL and 6.1 pg/mL and the “IL-1β Concentration, CBD + LPS + ATP, Mean” value (NLRP3 inflammasome; Table 1A.1, J774A.1, CBD 10 μM + LPS 1 μg/mL 5.5 hours, ATP 5 mM last 30 minutes, mean) was 118.725 pg/mL. For the same molecule, the “IL-1β Concentration, CBD” value (NLRP3 inflammasome; Table 1A.2 (repeat), J774A.1, CBD 10 μM alone, single wells) was 7.86 pg/mL and 6.35 pg/mL and 8.81 pg/mL and 9.46 pg/mL and 10.46 pg/mL and 8.97 pg/mL, the “IL-1β Concentration, LPS + ATP + CBD” value (NLRP3 inflammasome; Table 1A.3 (repeat), J774A.1, CBD 10 μM + LPS + ATP, single wells) was 10.8 pg/mL and 17 pg/mL and 11.31 pg/mL and 18.96 pg/mL and the “IL-1β Concentration, LPS + ATP + CBD, Mean” value (NLRP3 inflammasome; Table 1A.4, mean of Tables 1A.2 and 1A.3, CBD 10 μM + LPS + ATP) was 19.44 pg/mL. For the same molecule, the “IL-1β Concentration, CBD, Mean” value (NLRP3 inflammasome; Table 1A.4, mean of Tables 1A.2 and 1A.3, CBD 10 μM alone) was 8.898 pg/mL, the “attenuation of the increase in IL-1β” value (NLRP3 inflammasome; calculated from Table 1A.1 means) was “over 70%” and the “attenuation of the increase in IL-1β” value (NLRP3 inflammasome; calculated from Table 1A.4 means) was “about 97.65%”. The “effect on LPS-induced increase in IL-6 (FIG. 1C)” value (IL-6) was “attenuated this increase completely”, the “effect on LPS-induced transcription of pro-IL-1β mRNA (FIG. 1D)” value (pro-IL-1β mRNA) was “significantly attenuated these increases” and the “effect on LPS-induced transcription of NLRP3 mRNA (FIG. 1E)” value (NLRP3 mRNA) was “significantly attenuated these increases”. For the same molecule, the “effect on increase in measured pericardial space, Zym+CBD 1 mg/kg (FIG. 2)” value ([1]; Zymosan A mice, CBD 1 mg/kg IP daily for seven days) was “attenuated the increase in the measured pericardial space to the same degree as cannabidiol at a dose of 10 mg/kg”, the “Measured pericardial space, Zym + CBD, Mean” value ([1]; Zymosan A mice, CBD 10 mg/kg IP daily for seven days, day seven, mean) was 0.1177 mm and the “Measured pericardial space, Zym + CBD” value ([1]; Zymosan A mice, CBD 10 mg/kg IP daily for seven days, day seven, single mice) was 0.103 mm and 0.152 mm and 0.112 mm and 0.104 mm. For the same molecule, the “pericardial space versus Group 1 (Saline+Veh), Zym+CBD” value ([1]; Zymosan A mice, CBD 10 mg/kg IP, differences not statistically significant) was “did not develop a pericardial space greater than that of the mice of Group 1”, the “attenuation of the increase in the measured pericardial space” value ([1]; calculated from Table 2 means, Zymosan A mice, CBD 10 mg/kg IP) was “at least 85%” and the “Measured pericardial space, Saline + CBD” value ([1]; sham (saline) mice, CBD 10 mg/kg IP daily for seven days, day seven, single mice) was 0.098 mm and 0.097 mm and 0.105 mm. For the same molecule, the “pericardial space versus Group 1 (Saline+Veh), Saline+CBD” value ([1]; sham mice, CBD 10 mg/kg IP, differences not statistically significant) was “did not develop a pericardial space greater than that of the mice of Group 1”, the “pericardial thickness versus Group 1 (NaCl+Veh), Zym+CBD 1 mg/kg” value ([2]; Zymosan A mice, CBD 1 mg/kg IP) was “did not develop a pericardial thickness different from that of the mice of Group 1” and the “pericardial thickness versus Group 1 (NaCl+Veh), Zym+CBD 10 mg/kg (FIG. 3)” value ([2]; Zymosan A mice, CBD 10 mg/kg IP) was “did not develop a pericardial thickness different from that of the mice of Group 1”. The “pericardial thickness versus Group 1 (NaCl+Veh), NaCl+CBD (FIG. 3)” value ([2]; sham mice, CBD 10 mg/kg IP) was “did not develop a pericardial thickness different from that of the mice of Group 1”.
